“Also recorded” adds a separate entry of the source.
Columns and labels:
[1] = target: T1, human PEP (Homo sapiens, UniProt P48147); conditions: inhibitor from Calbiochem Inc.; cited from earlier work
T1 sequence (P48147 1-710): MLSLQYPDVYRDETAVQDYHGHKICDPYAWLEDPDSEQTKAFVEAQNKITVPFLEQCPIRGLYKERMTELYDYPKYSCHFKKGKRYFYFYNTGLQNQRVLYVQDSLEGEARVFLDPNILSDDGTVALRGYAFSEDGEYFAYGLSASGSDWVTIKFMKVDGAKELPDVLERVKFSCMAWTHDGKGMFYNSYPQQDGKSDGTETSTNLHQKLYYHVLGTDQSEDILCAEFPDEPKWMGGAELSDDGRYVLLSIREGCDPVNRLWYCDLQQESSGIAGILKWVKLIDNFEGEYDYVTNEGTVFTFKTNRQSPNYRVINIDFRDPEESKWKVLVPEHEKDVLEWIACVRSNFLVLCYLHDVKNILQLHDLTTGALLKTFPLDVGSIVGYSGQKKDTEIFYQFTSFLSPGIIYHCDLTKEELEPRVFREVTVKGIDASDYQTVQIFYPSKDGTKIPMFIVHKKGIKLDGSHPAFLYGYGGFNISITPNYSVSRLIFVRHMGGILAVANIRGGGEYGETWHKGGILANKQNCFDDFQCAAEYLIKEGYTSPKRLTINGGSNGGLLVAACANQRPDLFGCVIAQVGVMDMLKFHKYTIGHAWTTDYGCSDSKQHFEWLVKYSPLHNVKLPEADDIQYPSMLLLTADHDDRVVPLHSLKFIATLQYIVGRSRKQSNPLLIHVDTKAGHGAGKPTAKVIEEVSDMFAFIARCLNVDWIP

[2] = system: type A spermatogonial cells; conditions: cited from earlier work
[3] = system: Rec8 or STAG3; assay: Degradation of other cohesin subunits in testis nuclear extracts; assay type: biochemical, mouse; conditions: ATP added to testis nuclear extract
[4] = system: SMC1β; assay: SMC1β proteolysis/degradation assay in testis nuclear extracts (immunoblot); assay type: biochemical, mouse; conditions: for effect of added SMC1β protein fragment on degradation of SMC1β: increasing amounts of fragment added to testis nuclear extract, anti-SMC1β immunoblot
Excerpt: It is very likely, that phosphorylation and/or protein degradation play an important role in regulating the removal of SMC1β and its complex from meiotic chromosomes. Understanding this mechanism would fill a significant gap in our knowledge of the meiotic process and of regulation of SMC1β function. It is unlikely that association and dissociation of cohesins are regulated exclusively through Rec8, because Rec8 behaves differently from SMC1β and SMC3 (Eijpe et al., J. Cell Biol. 160:657-670,2003; and see below). As a first approach to address this question, a series of proteolysis assays were undertaken. In these assays, nuclear extracts from mouse testis were incubated under various conditions and investigated the intactness of SMC1β by immunoblotting.
To begin testing the effect of phosphorylation, nuclear extracts were prepared in the presence or absence of general phosphatase inhibitors (1 mM o-vanadate, 10 mM β-glycerophosphate). If a phosphorylated SMC1β is more prone to degradation, inhibited dephosphorylation should stimulate degradation. […] The effect of phosphatase inhibition can either be direct—on SMC1β phosphorylation—or indirect, i.e. on maintaining an activated state of the protease or of a regulator of the protease. The mechanism of phosphatase inhibition and the identification of enzymes that are involved are currently being examined.
Speculating that the 120-kDa product seen in degradation assays is a true intermediate of SMC1β degradation, two fragments of SMC1β that span either one of the two putative regions of cleavage, positioned at about 30 kDa distance from each of the termini, were subcloned and expressed in E. coli. Thus, an N-terminal or a C-terminal polypeptide of 33 or 35 kDa, respectively, was expressed and purified. While the N-terminal fragment was purified to near homogeneity (100 mM imidazole fraction), there were one major and a few minor contaminants in the C-terminal fragment preparation. The putative region of cleavage was identified at the center of these polypeptides (N-terminal fragment: amino acids 174 to 420; C-terminal fragment: amino acids 820 to 1073). These proteins were used in cleavage inhibition assays. […] Thus, there is early evidence for a cleavage site within the N-terminal region between amino acids 174 and 420, and the precise cleavage site is being determined.
In attempts to identify the protease cleavage site within SMC1β, N-terminal and C-terminal protein fragments of SMC1β were purified in increasing concentrations of imidazole in elution buffer and run on silver-stained SDS polyacrylamide gels. To assay degradation, increasing amounts of N- or C-terminal protein fragments were then added to a reaction containing extract incubated with and without competitor. Reactions were then separated eletrophoretically on SDS polyacrylamide gels, immunoblotted, and probed with anti-SMC1β antibody. […] Cleavage of the N-terminal fragment itself is currently being investigated.

[5] = system: spermatocytes; assay: Okadaic acid-induced premature transition of cultured spermatocytes into metaphase I; assay type: cell-based; conditions: wildtype mouse spermatocytes; 5 μM okadaic acid for 5 h
Excerpt: As a result, 20 bivalents, each with two pairs of unseparated, closely apposed sister kinetochores and at least one chiasma became visible. […] Co-staining for γ-H2AX, which decreases from zygotene to pachytene, allowed for determination of the stage at which the cells were exposed to OA. Cells with 80 centromere signals were of pachytene origin (no γ-H2AX), and cells with 40 centromere signals were of zygotene origin (patchy γ-H2AX).
Most antibodies used have been described (Eijpe et al., supra, 2000; Revenkova et al., supra, 2001; and 14. Eijpe et al., J. Cell Biol. 3,.657-670, 2003). Mouse anti-MLH1 was from BDPharMingen, rabbit-antiMLH1 from Calbiochem, and rabbit anti-SMC1α from Bethyl Labs Inc. Mouse anti-γH2AX was donated by A. Pastink, rabbit anti-SMC3 by J. -M. Peters, rabbit anti-RAP1 by T. de Lange, mouse anti-ATR by P. de Boer, mouse anti-MLH3 by P. Cohen, and goat anti-rat SCP3 by T. Ashley. Paraffin and frozen sections of mouse testis, and dry-down preparations of testis cell suspensions were prepared, incubated for immunocytochemistry and analyzed as described (Eijpe et al., supra, 2000;, Revenkova et al., supra, 2001; Eijpe et al., J. Cell Biol. 3, 657-670, 2003; Peters et al., Chromosome Res. 5:66-68, 1997). Mice were labeled in vivo with BrdU, and detected -the incorporated BrdU in sections and dry-down preparations as described before (Eijpe et al, supra, 2003). […]

Molecule: CC(C)(C)OC(=O)NC(CCC(=O)NOC(=O)c1ccccc1)C(=O)N1CCCC1 (stereo not shown) [Boc-Glu(NHO-Bz)-Pyr]
- Ki [1]: 30 nM

Molecule: stem cell factor: stem cell factor (SCF; kit ligand) added to induce meiosis in spermatogonial cultures
- cells that are 4N ([2]; after 1 week of induction): 40%
- total cell population that is haploid ([2]; after 3 weeks of induction): 58%

Molecule: Nc1ncnc2c1ncn2[C@@H]1O[C@H](COP(=O)(O)OP(=O)(O)OP(=O)(O)O)[C@@H](O)[C@H]1O [ATP]
- effect of ATP on degradation of Rec8 or STAG3 [3]: not enhanced by addition of ATP, but rather inhibited
- effect of ATP on SMC1β degradation ([4]; ATP added to testis nuclear extract): increased the efficiency of the reaction; also recorded: stimulates SMC1β degradation

Molecule: C=C1[C@@H](O)[C@@H]2O[C@]3(CC[C@H](/C=C/[C@@H](C)[C@@H]4CC(C)=C[C@@]5(O[C@H](C[C@@](C)(O)C(=O)O)CC[C@H]5O)O4)O3)CC[C@H]2O[C@@H]1[C@@H](O)C[C@H](C)[C@H]1O[C@@]2(CCCCO2)CC[C@H]1C [OA, okadaic acid]
- effect on chromosome condensation and cohesion [5]: caused premature chromosome condensation from mid-pachytene on, without affecting sister chromatid arm and centromere cohesion

B1: C-terminal protein: SMC1β C-terminal fragment, amino acids 820 to 1073, 35 kDa polypeptide expressed in E. coli (protein, UniProt Q8NDV3 820-1073, looked up, fragment)
chain: QLEYSRSHLKKKLNKINTLKETIQKGSEDIDHLKKAEENCLQTVNELMAKQQQLKDIRVTQNSSAEKVQTQIEEERKKFLAVDREVGKLQKEVVSIQTSLEQKRLEKHNLLLDCKVQDIEIILLSGSLDDIIEVEMGTEAESTQATIDIYEKEEAFEIDYSSLKEDLKALQSDQEIEAHLRLLLQQVASQEDILLKTAAPNLRALENLKTVRDKFQESTDAFEASRKEARLCRQEFEQVKKRRYDLFTQCFEHV
- effect of added SMC1β protein fragment on degradation of SMC1β [4]: degradation was not affected

B2: N-terminal protein: SMC1β N-terminal fragment, amino acids 174 to 420, 33 kDa polypeptide expressed in E. coli (protein, UniProt Q8NDV3 174-420, looked up, fragment)
chain: KLQKAEEDAQFNFNKKKNIAAERRQAKLEKEEAERYQSLLEELKMNKIQLQLFQLYHNEKKIHLLNTKLEHVNRDLSVKRESLSHHENIVKARKKEHGMLTRQLQQTEKELKSVETLLNQKRPQYIKAKENTSHHLKKLDVAKKSIKDSEKQCSKQEDDIKALETELADLDAAWRSFEKQIEEEILHKKRDIELEASQLDRYKELKEQVRKKVATMTQQLEKLQWEQKTDEERLAFEKRRHGEVQGN
- effect of added SMC1β protein fragment on degradation of SMC1β [4]: inhibited the degradation of SMC1β
- effect of added SMC1β protein fragment on degradation of SMC1β ([4]; listed as N-terminal 33-kDa fragment): identified as an inhibitor to protease cleavage
- effect of added SMC1β protein fragment on degradation of SMC1β ([4]; listed as N-terminal peptide of SMC1β): inhibited specifically

Source: US20070298026A1, “Methods for Identifying Treatment and Inducing Infertility Using Smc1-Beta” (MOUNT SINAI SCHOOL OF MEDICINE Office of Industrial Liaison, priority 2003, published 2007)
